Results reported in patent US20260262643A1, “HERBICIDAL BENZOXAZINES” (FMC CORPORATION, priority 2022, published 2026).

How the values were obtained:
barnyardgrass [1] = assay: Test C preemergence; type: in vivo, Echinochloa crusgalli; details: 0 to 100 scale (0 no effect, 100 complete control)
In short: (§1)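 Greenhouse herbicide screen, 10-day duration. Test chemicals in solvent/surfactant blend were sprayed onto soil at sowing (pre) or onto 2–10 cm seedlings at one to two leaves (post); injury scored visually against controls, 0 no effect to 100 complete control.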

blackgrass [2] = assay: Test C preemergence; type: in vivo, Alopecurus myosuroides; details: 0 to 100 scale (0 no effect, 100 complete control)
In short: as §1

corn [3] = assay: Test C preemergence; type: in vivo, Zea mays; details: 0 to 100 scale (0 no effect, 100 complete control)
In short: as §1

green foxtail [4] = assay: Test C preemergence; type: in vivo, Setaria viridis; details: 0 to 100 scale (0 no effect, 100 complete control)
In short: as §1

kochia [5] = assay: Test C preemergence; type: in vivo, Bassia scoparia; details: 0 to 100 scale (0 no effect, 100 complete control)
In short: as §1

oat, wild [6] = assay: Test C preemergence; type: in vivo, Avena fatua; details: 0 to 100 scale (0 no effect, 100 complete control)
In short: as §1

pigweed, palmer [7] = assay: Test C preemergence; type: in vivo, Amaranthus palmeri; details: 0 to 100 scale (0 no effect, 100 complete control)
In short: as §1

ragweed [8] = assay: Test C preemergence; type: in vivo, Ambrosia artemisiifolia; details: 0 to 100 scale (0 no effect, 100 complete control)
In short: as §1

ryegrass, Italian [9] = assay: Test C preemergence; type: in vivo, Lolium multiflorum; details: 0 to 100 scale (0 no effect, 100 complete control)
In short: as §1

soybean [10] = assay: Test C preemergence; type: in vivo, Glycine max; details: 0 to 100 scale (0 no effect, 100 complete control)
In short: as §1

wheat [11] = assay: Test C preemergence; type: in vivo, Triticum aestivum; details: 0 to 100 scale (0 no effect, 100 complete control)
In short: as §1

barnyardgrass [12] = assay: Test C postemergence; type: in vivo, Echinochloa crusgalli; details: 10 days
In short: as §1

blackgrass [13] = assay: Test C postemergence; type: in vivo, Alopecurus myosuroides; details: 10 days
In short: as §1

corn [14] = assay: Test C postemergence; type: in vivo, Zea mays; details: 10 days
In short: as §1

green foxtail [15] = assay: Test C postemergence; type: in vivo, Setaria viridis; details: 10 days
In short: as §1

kochia [16] = assay: Test C postemergence; type: in vivo, Bassia scoparia; details: 10 days
In short: as §1

oat, wild [17] = assay: Test C postemergence; type: in vivo, Avena fatua; details: 10 days
In short: as §1

pigweed, palmer [18] = assay: Test C postemergence; type: in vivo, Amaranthus palmeri; details: 10 days
In short: as §1

ragweed [19] = assay: Test C postemergence; type: in vivo, Ambrosia artemisiifolia; details: 10 days
In short: as §1

ryegrass, Italian [20] = assay: Test C postemergence; type: in vivo, Lolium multiflorum; details: 10 days
In short: as §1

soybean [21] = assay: Test C postemergence; type: in vivo, Glycine max; details: 10 days
In short: as §1

wheat [22] = assay: Test C postemergence; type: in vivo, Triticum aestivum; details: 10 days
In short: as §1

horseweed = assay: Test C postemergence; type: in vivo, Erigeron canadensis; details: 10 days
In short: as §1

barnyardgrass [23] = assay: Test D flooded paddy test; type: in vivo, Echinochloa crus-galli; details: 250 g ai/ha, applied to paddy water, visual rating after 13 to 14 days, scale 0 to 100 (0 no effect, 100 complete control)
In short: (§2)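 Rating scale 0–100 (0 no effect, 100 complete control), visual, versus controls. Readout at 13–14 days after in-water application to 2-leaf plants in pots flooded 3 cm deep.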

ducksalad = assay: Test D flooded paddy test; type: in vivo, Heteranthera limosa; details: 250 g ai/ha, applied to paddy water, visual rating after 13 to 14 days, scale 0 to 100 (0 no effect, 100 complete control)
In short: as §2

rice = assay: Test D flooded paddy test; type: in vivo, Oryza sativa; details: 250 g ai/ha, applied to paddy water, visual rating after 13 to 14 days, scale 0 to 100 (0 no effect, 100 complete control)
In short: as §2

sedge, umbrella = assay: Test D flooded paddy test; type: in vivo, Cyperus difformis; details: 250 g ai/ha, applied to paddy water, visual rating after 13 to 14 days, scale 0 to 100 (0 no effect, 100 complete control)
In short: as §2

[24] = Preemergence, 500 g ai/ha, visual rating after 10 days
[25] = Test C, preemergence, 125 g ai/ha
[26] = 125 g ai/ha, postemergence, 0 to 100 scale, 0 no effect, 100 complete control
[27] = Postemergence, 500 g ai/ha, visual 0 to 100 scale (0 no effect, 100 complete control)

For `COc1cc(C(=O)N2C[C@H](C)Oc3c(Cl)cccc32)cc(-n2cnc(C)n2)c1` [Compound 215], which “Plant response rating, Barnyardgrass” value (barnyardgrass [1]; [24]) is on record?
Its value is 100.

What about the “Barnyardgrass plant response rating” value (barnyardgrass [1]; [25]) of the same molecule?
The value was 80.

What about the “Plant response rating, Blackgrass” value (blackgrass [2]; [24]) of the same molecule?
The value was 90.

And the “Blackgrass plant response rating” value (blackgrass [2]; [25])?
Its value is 70.

And the “Plant response rating, Corn” value (corn [3]; [24])?
Its value is 60.

And the “Corn plant response rating” value (corn [3]; [25])?
The value was 30.

What about the “Plant response rating, Foxtail, Green” value (green foxtail [4]; [24]) of the same molecule?
The value was 100.

And the “Foxtail, Green plant response rating” value (green foxtail [4]; [25])?
The value was 100.

And the “Plant response rating, Kochia” value (kochia [5]; [24])?
The value was 100.

What about the “Kochia plant response rating” value (kochia [5]; [25]) of the same molecule?
The value was 90.

And the “Plant response rating, Oat, Wild” value (oat, wild [6]; [24])?
Its value is 90.

And the “Oat, Wild plant response rating” value (oat, wild [6]; [25])?
Its value is 50.

And the “Plant response rating, Pigweed, Palmer” value (pigweed, palmer [7]; [24])?
The value was 100.

And the “Pigweed, Palmer plant response rating” value (pigweed, palmer [7]; [25])?
Its value is 100.

And the “Plant response rating, Ragweed” value (ragweed [8]; [24])?
Its value is 30.

And the “Ragweed plant response rating” value (ragweed [8]; [25])?
Its value is 0.

And the “Plant response rating, Ryegrass, Italian” value (ryegrass, Italian [9]; [24])?
The value was 100.

And the “Ryegrass, Italian plant response rating” value (ryegrass, Italian [9]; [25])?
Its value is 90.

And the “Plant response rating, Soybean” value (soybean [10]; [24])?
The value was 100.

And the “Soybean plant response rating” value (soybean [10]; [25])?
Its value is 80.

And the “Plant response rating, Wheat” value (wheat [11]; [24])?
Its value is 90.

And the “Wheat plant response rating” value (wheat [11]; [25])?
Its value is 20.

What about the “Plant response rating, Barnyardgrass” value (barnyardgrass [12]; [26]) of the same molecule?
Its value is 60.

And the “Plant response rating, Barnyardgrass” value (barnyardgrass [12]; [27])?
The value was 70.

And the “Plant response rating, Blackgrass” value (blackgrass [13]; [26])?
Its value is 90.

And the “Plant response rating, Blackgrass” value (blackgrass [13]; [27])?
The value was 90.

What about the “Plant response rating, Corn” value (corn [14]; [26]) of the same molecule?
Its value is 70.

What about the “Plant response rating, Corn” value (corn [14]; [27]) of the same molecule?
The value was 90.

What about the “Plant response rating, Foxtail, Green” value (green foxtail [15]; [26]) of the same molecule?
Its value is 90.

What about the “Plant response rating, Foxtail, Green” value (green foxtail [15]; [27]) of the same molecule?
The value was 90.

What about the “Plant response rating, Kochia” value (kochia [16]; [26]) of the same molecule?
Its value is 80.

What about the “Plant response rating, Kochia” value (kochia [16]; [27]) of the same molecule?
The value was 90.

And the “Plant response rating, Oat, Wild” value (oat, wild [17]; [26])?
The value was 30.

And the “Plant response rating, Oat, Wild” value (oat, wild [17]; [27])?
Its value is 50.

What about the “Plant response rating, Pigweed, Palmer” value (pigweed, palmer [18]; [26]) of the same molecule?
The value was 90.

What about the “Plant response rating, Pigweed, Palmer” value (pigweed, palmer [18]; [27]) of the same molecule?
Its value is 100.

What about the “Plant response rating, Ragweed” value (ragweed [19]; [26]) of the same molecule?
The value was 60.

And the “Plant response rating, Ragweed” value (ragweed [19]; [27])?
The value was 70.

And the “Plant response rating, Ryegrass, Italian” value (ryegrass, Italian [20]; [26])?
The value was 70.

What about the “Plant response rating, Ryegrass, Italian” value (ryegrass, Italian [20]; [27]) of the same molecule?
The value was 90.

And the “Plant response rating, Soybean” value (soybean [21]; [26])?
The value was 100.

And the “Plant response rating, Soybean” value (soybean [21]; [27])?
Its value is 100.

And the “Plant response rating, Wheat” value (wheat [22]; [26])?
Its value is 30.

What about the “Plant response rating, Wheat” value (wheat [22]; [27]) of the same molecule?
Its value is 70.

And the “Plant response rating, Horseweed” value (horseweed; [26])?
The value was 0.

And the “Plant response rating, Horseweed” value (horseweed; [27])?
The value was 70.

And the “Plant response rating, Barnyardgrass (Flood)” value (barnyardgrass [23])?
Its value is 50.

And the “Plant response rating, Ducksalad (Flood)” value (ducksalad)?
The value was 100.

And the “Plant response rating, Rice (Flood)” value (rice)?
The value was 55.

And the “Plant response rating, Sedge, Umbrella (Flood)” value (sedge, umbrella)?
The value was 100.
